Source: USRE39616E1, “Aminoindan derivatives” (priority 1996, dated 2007)
Structures can show the parent of a compound that is named as a salt.

Key:
[1] = test system: Closed Head Injury (CHI) in Mice; test: Morris Water Maze Test after closed head injury (reference memory); details: retested daily for 2 weeks
Description: Morris Water Maze Test: the water maze consists of a circular aluminium pool, im in diameter and 60 cm in depth, filled with water to a depth of 17.5 cm. The hidden goal platform is a glass vessel (15 cm diameter×16.5 cm height) placed upside down at a fixed location in the pool, 1 cm below the surface of the water. The water temperature is maintained at 24° C. and the pool is always placed in the same position in the room to provide the same extra-maze cues. […] Commencing 24 hr after CHI, mice were retested daily for 2 weeks in 3 trials per day.

MAO-B = target: T1, MAO-B (Rattus norvegicus, UniProt P19643); test: Inhibition of MAO activity following sub-acute administration to rats; assay type: in vivo; parameters: from tissue; host or cells: rat brain, liver and intestine; details: sc, read-out: % MAO-B inhibition, Intestine, dose head prints 25 mg/kg (6 mg/kg sc) daily for 14 days
T1 sequence (P19643 1-520): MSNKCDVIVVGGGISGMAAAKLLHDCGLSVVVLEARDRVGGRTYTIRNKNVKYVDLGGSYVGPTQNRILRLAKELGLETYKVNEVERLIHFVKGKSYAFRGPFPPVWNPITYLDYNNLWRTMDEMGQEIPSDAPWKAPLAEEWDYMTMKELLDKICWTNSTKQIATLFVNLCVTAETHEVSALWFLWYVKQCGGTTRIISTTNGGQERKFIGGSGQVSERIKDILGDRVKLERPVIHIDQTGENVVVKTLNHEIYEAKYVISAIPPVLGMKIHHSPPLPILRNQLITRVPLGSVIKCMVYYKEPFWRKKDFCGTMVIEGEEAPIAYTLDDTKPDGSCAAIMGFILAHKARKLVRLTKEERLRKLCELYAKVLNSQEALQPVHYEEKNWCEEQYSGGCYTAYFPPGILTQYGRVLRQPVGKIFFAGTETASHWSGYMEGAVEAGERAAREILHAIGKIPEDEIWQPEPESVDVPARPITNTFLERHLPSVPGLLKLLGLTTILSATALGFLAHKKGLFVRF
Description: Substrate concentrations used were 50 μM (PEA) and 1 mM (5-HT).
Male Sabra mice, weighing 45-50 g were injected with test compound solutions (prepared in 0.9% saline). Each dose was administered to two or three mice. The mice were sacrificed two hours after drug administration or at a time corresponding to the peak AChE inhibition time (see Table 11). The brain and liver were rapidly dissected and stored in appropriate vials on ice. The tissues were weighed, diluted to ½ in sucrose 0.3M and stored at −20° C. before performance of the MAO assay described above. The results given in Table 11 relate to measurements made on brain tissue only.
Experiments were done in Sprague Dawley male rats. […] At the end of this period animals were sacrificed and MAO levels determined in the brain, liver and intestines.

CCN(C)C(=O)Oc1ccc2c(c1)C(NC)CC2 (stereo not drawn) [Compound 10]
reduction in latency to find the platform, Morris Water Maze, compared to saline treated controls ([1]; 15 mg/kg, FIG. 1): Memory is enhanced

C#CCNC1CCc2ccc(OC(=O)N(C)C)cc21 (stereo not drawn) [Compound 24, 6-(N,N-Dimethylcarbamyloxy)-N-propargyl aminoindan mesylate]
inhibition at 6 mg/kg (MAO-B): 0%

C#CCNC1CCc2ccc(OC(=O)N(C)CC)cc21 (stereo not drawn) [Compound 25, 6-(N-Me, N-Etcarbamyloxy) N-propargyl aminoindan, HCl]
reduction in latency to find the platform, Morris Water Maze, compared to saline treated controls ([1]; 46 mg/kg, FIG. 2): Memory is enhanced
